Experimental data reported in patent US6426355B1, “Heterocyclic carboxamide-containing thiourea inhibitors of herpes viruses containing phenylenediamine group” (American Home Products, priority 1998, dated 2002).
Converted amounts (≈) assume the structure as drawn.

What was measured:
[1] = system: HCMV recombinant mutant virus (RV145); assay: HCMV microtiter plate assay (beta-glucuronidase reporter); type: cell-based, Human Cytomegalovirus; conditions: for IC50 (ug/ml) HCMV: HCMV in human foreskin fibroblasts; for IC50: Human betaherpesvirus 5, Fibroblast, read-out: IC50 (ug/ml) HCMV
In short: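 Replication was read out as virus-encoded β-glucuronidase activity, measured with a chromogenic or fluorogenic glucuronide substrate in cell lysates at 96 h post-infection. Infection of human foreskin fibroblasts with RV145 took place with compound present. IC50 was derived from a range of inhibitor amounts.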

[2] = system: VZV strain Ellen; assay: VZV Antiviral (ELISA) assay; type: cell-based; conditions: for IC50 (ug/ml) VZV / % inhibition 10 ug/ml VZV: VZV strain Ellen in HFF cells; for % inhibition 10 ug/ml VZV: at 10 ug/ml; for IC50: Human alphaherpesvirus 3, VZV strain Ellen in HFF cells, read-out: IC50 (ug/ml) VZV; for inhibition at 10 µg/mL: Human alphaherpesvirus 3, read-out: % inhibition 10 ug/ml VZV, at 10 ug/ml, VZV strain Ellen in HFF cells
In short: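 Antiviral IC50 is derived by comparing fluorescence with and without compound after a three-day culture of VZV-infected plus uninfected foreskin fibroblasts. Replication is quantified by ELISA against glycoprotein II, using a β-galactosidase secondary and methyl umbelliferyl-β-D-galactoside.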

[3] = system: HSV-1; assay: HSV Antiviral (ELISA) assay; type: cell-based; conditions: for IC50 (ug/ml) HSV: HSV-1 in Vero cells; for IC50: Human alphaherpesvirus 1, HSV-1 in Vero cells, read-out: IC50 (ug/ml) HSV
In short: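 Replication measured as glycoprotein D signal in fixed cells: anti-gD antibody plus β-galactosidase-linked secondary, fluorogenic substrate read at 365/450 nm. Vero cells (2% FBS DMEM) received compound 30 min pre-infection, HSV-1 MOI 0.006, ~24 h incubation; IC50 relative to no-compound fluorescence.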

C[C@H](NC(=S)Nc1ccc(NC(=O)c2cscn2)nc1)c1cc(C(F)(F)F)cc(C(F)(F)F)c1 [Example 91]
IC50 (ug/ml) HCMV [1]: 0.018 µg/mL (≈ 0.0346 µM)
IC50 (ug/ml) VZV [2]: >10 µg/mL
% inhibition 10 ug/ml VZV [2]: 6%
IC50 (ug/ml) HSV [3]: >10 µg/mL

O=C(Nc1ccc(NC(=S)NCc2ccc(Cl)c(Cl)c2)cc1)c1csnn1 [Example 537]
IC50 (ug/ml) HCMV [1]: 0.003 µg/mL (≈ 0.00684 µM)
IC50 (ug/ml) VZV [2]: 10 µg/mL (≈ 22.8 µM)
IC50 (ug/ml) HSV [3]: 9 µg/mL (≈ 20.5 µM)

COc1cc(OC)c(NC(=S)Nc2ccc(NC(=O)c3ccco3)cc2)cc1Br [Example 879, Furan-2-carboxylic acid {4-[3-(5-bromo-2,4-dimethoxy-phenyl)-thioureido]-phenyl}-amide]
IC50 [1]: 0.3 µg/mL (≈ 0.63 µM)
IC50 [2]: 10 µg/mL (≈ 21 µM)
inhibition at 10 µg/mL [2]: 65%
IC50 [3]: 4 µg/mL (≈ 8.4 µM)

COc1cc(OC)c(NC(=S)Nc2ccc(NC(=O)c3cc4ccccc4o3)cc2)cc1Cl [Example 154]
IC50 (ug/ml) HCMV [1]: 10 µg/mL (≈ 20.7 µM)
IC50 (ug/ml) VZV [2]: >10 µg/mL
% inhibition 10 ug/ml VZV [2]: 23%
IC50 (ug/ml) HSV [3]: 4 µg/mL (≈ 8.3 µM)

O=C(Nc1ccc(NC(=S)Nc2cccc(Cl)c2)cc1)c1csnn1 [Example 992, [1,2,3]Thiadiazole-4-carboxylic acid {4-[3-(3-chloro-phenyl)-thioureido]-phenyl}-amide]
IC50 [1]: 0.018 µg/mL (≈ 0.0462 µM)
IC50 [2]: > 10 µg/mL
inhibition at 10 µg/mL [2]: 29%
IC50 [3]: > 10 µg/mL

O=C(Nc1ccc(NC(=S)NCCc2cc(C(F)(F)F)cc(C(F)(F)F)c2)cc1)c1csnn1 [Example 599]
IC50 (ug/ml) HCMV [1]: 0.005 µg/mL (≈ 0.00962 µM)
IC50 (ug/ml) VZV [2]: >10 µg/mL
IC50 (ug/ml) HSV [3]: >10 µg/mL

CC(NC(=S)Nc1ccc(NC(=O)c2ccsc2)cc1)c1ccc(F)cc1 (centres unmarked) [Example 1129, Thiophene-3-carboxylic acid (4-{3-[1-(4-fluoro-phenyl)-ethyl]-thioureido}-phenyl)-amide]
IC50 [1]: 1 µg/mL (≈ 2.5 µM)
IC50 [2]: > 10 µg/mL
IC50 [3]: 1.9 µg/mL (≈ 4.76 µM)

COc1c(Cl)cc(NC(=S)Nc2ccc(NC(=O)c3cccc(F)c3)cc2)cc1Cl [Example 922, N-{4-[3-(3,5-Dichloro-4-methoxy-phenyl)-thioureido]-phenyl}-3-fluoro-benzamide]
IC50 [1]: 0.01 µg/mL (≈ 0.0215 µM)
IC50 [2]: 7 µg/mL (≈ 15.1 µM)
inhibition at 10 µg/mL [2]: 84%
IC50 [3]: > 10 µg/mL

O=C(Nc1ccc(CNC(=S)Nc2ccc(Cl)c(C(F)(F)F)c2)cc1)c1csnn1 [Example 631]
IC50 (ug/ml) HCMV [1]: 0.15 µg/mL (≈ 0.318 µM)
IC50 (ug/ml) VZV [2]: 6 µg/mL (≈ 12.7 µM)
IC50 (ug/ml) HSV [3]: 6 µg/mL (≈ 12.7 µM)

COc1cc(OC)c(NC(=S)Nc2ccc(NC(=O)c3ccccn3)cc2)cc1Cl [Example 224]
IC50 (ug/ml) HCMV [1]: 0.8 µg/mL (≈ 1.81 µM)
IC50 (ug/ml) VZV [2]: >10 µg/mL
% inhibition 10 ug/ml VZV [2]: 30%
IC50 (ug/ml) HSV [3]: 3.5 µg/mL (≈ 7.9 µM)

CC(C)Cc1cc(NC(=S)Nc2ccc(NC(=O)c3csnn3)cc2)cc(C(F)(F)F)c1 [Example 557]
IC50 (ug/ml) HCMV [1]: 0.006 µg/mL (≈ 0.0125 µM)
IC50 (ug/ml) VZV [2]: >10 µg/mL
IC50 (ug/ml) HSV [3]: >10 µg/mL

Nc1cccc(NC(=S)Nc2ccc(NC(=O)c3csnn3)cc2)c1 [Example 918, [1,2,3]Thiadiazole-4-carboxylic acid {4-[3-(3-amino-phenyl)-thioureido]-phenyl}-amide]
IC50 [1]: 0.03 µg/mL (≈ 0.081 µM)
IC50 [2]: > 10 µg/mL
IC50 [3]: > 10 µg/mL

O=C(Nc1ccc(NC(=S)Nc2cccc(Cl)c2Cl)cc1)c1csnn1 [Example 979, [1,2,3]Thiadiazole-4-carboxylic acid {4-[3-(2,3-dichloro-phenyl)-thioureido]-phenyl} -amide]
IC50 [1]: 0.19 µg/mL (≈ 0.448 µM)
IC50 [2]: 12 µg/mL (≈ 28.3 µM)
inhibition at 10 µg/mL [2]: 88%
IC50 [3]: 8 µg/mL (≈ 18.9 µM)

COc1cccc(CCNC(=S)Nc2ccc(NC(=O)c3csnn3)cc2)c1 [Example 637]
IC50 (ug/ml) HCMV [1]: 0.014 µg/mL (≈ 0.0339 µM)
IC50 (ug/ml) VZV [2]: >10 µg/mL
IC50 (ug/ml) HSV [3]: >10 µg/mL

O=C(CN1CCCCC1)Nc1ccc(NC(=S)Nc2ccc(NC(=O)c3ccco3)cc2)cc1Cl [Example 365]
IC50 (ug/ml) HCMV [1]: 0.035 µg/mL (≈ 0.0684 µM)
IC50 (ug/ml) VZV [2]: 5 µg/mL (≈ 9.76 µM)
% inhibition 10 ug/ml VZV [2]: 75%
IC50 (ug/ml) HSV [3]: 10 µg/mL (≈ 19.5 µM)

O=C(Nc1ccc(NC(=S)Nc2cc(N3CCOCC3)cc(C(F)(F)F)c2)cc1)c1csnn1 [Example 559]
IC50 (ug/ml) HCMV [1]: 0.012 µg/mL (≈ 0.0236 µM)
IC50 (ug/ml) VZV [2]: >10 µg/mL
IC50 (ug/ml) HSV [3]: >10 µg/mL

[1,2,3]Thiadiazole-4-carboxylic acid {4-[3-(3,4,5-chloro-4-isoxazol-5-yl-phenyl)-thioureido]-phenyl}-amide [Example 990]
IC50 (ug/ml) HCMV [1]: 0.011 µg/mL
IC50 (ug/ml) VZV [2]: 4.5 µg/mL
% inhibition 10 ug/ml VZV [2]: 99%
IC50 (ug/ml) HSV [3]: 8 µg/mL

CCCN(CCC)CC(=O)Nc1ccc(NC(=S)Nc2ccc(NC(=O)c3ccco3)cc2)cc1Cl [Example 411]
IC50 (ug/ml) HCMV [1]: 0.024 µg/mL (≈ 0.0454 µM)
IC50 (ug/ml) VZV [2]: 2 µg/mL (≈ 3.79 µM)
% inhibition 10 ug/ml VZV [2]: 99%
IC50 (ug/ml) HSV [3]: 8 µg/mL (≈ 15.1 µM)

O=C(Nc1ccc(NC(=S)NCc2ccc(Cl)c(Cl)c2)cc1)c1ccco1 [Example 545]
IC50 (ug/ml) HCMV [1]: 0.012 µg/mL (≈ 0.0285 µM)
IC50 (ug/ml) VZV [2]: 7 µg/mL (≈ 16.7 µM)
IC50 (ug/ml) HSV [3]: 3 µg/mL (≈ 7.14 µM)

O=C(Nc1ccc(NC(=S)NCCc2ccc(F)cc2)cc1)c1csnn1 [Example 555]
IC50 (ug/ml) HCMV [1]: 0.008 µg/mL (≈ 0.0199 µM)
IC50 (ug/ml) VZV [2]: 4 µg/mL (≈ 9.96 µM)
IC50 (ug/ml) HSV [3]: >10 µg/mL

CC(=O)Nc1cc(Cl)cc(NC(=S)Nc2ccc(NC(=O)c3csnn3)cc2)c1 [Example 644]
IC50 (ug/ml) HCMV [1]: 0.03 µg/mL (≈ 0.0671 µM)
IC50 (ug/ml) VZV [2]: 8 µg/mL (≈ 17.9 µM)
IC50 (ug/ml) HSV [3]: >10 µg/mL

CC(=O)Nc1ccc(NC(=S)Nc2ccc(NC(=O)c3ccco3)cc2)cc1Cl [Example 409]
IC50 (ug/ml) HCMV [1]: 2 µg/mL (≈ 4.66 µM)
IC50 (ug/ml) VZV [2]: >10 µg/mL
% inhibition 10 ug/ml VZV [2]: 5%
IC50 (ug/ml) HSV [3]: >10 µg/mL

CCCCN(C)c1cc(NC(=S)Nc2ccc(NC(=O)c3csnn3)cc2)cc(C(F)(F)F)c1 [Example 597]
IC50 (ug/ml) HCMV [1]: 0.008 µg/mL (≈ 0.0157 µM)
IC50 (ug/ml) VZV [2]: >10 µg/mL
IC50 (ug/ml) HSV [3]: >10 µg/mL

O=C(Nc1ccc(NC(=S)Nc2cc(C(F)(F)F)cc(C(F)(F)F)c2)cc1)c1ccco1 [Example 516]
IC50 (ug/ml) HCMV [1]: 0.04 µg/mL (≈ 0.0845 µM)
IC50 (ug/ml) VZV [2]: >10 µg/mL
% inhibition 10 ug/ml VZV [2]: 7%
IC50 (ug/ml) HSV [3]: >10 µg/mL

O=C(Nc1ccc(NC(=S)Nc2ccc(Br)c(C(F)(F)F)c2)cc1)c1csnn1 [Example 548]
IC50 (ug/ml) HCMV [1]: 0.008 µg/mL (≈ 0.0159 µM)
IC50 (ug/ml) VZV [2]: >lo
IC50 (ug/ml) HSV [3]: >10 µg/mL

CN1CCC(N(C)c2ccc(NC(=S)Nc3ccc(NC(=O)c4csnn4)cc3)cc2Cl)CC1 [Example 904, [1,2,3]Thiadiazole-4-carboxylic acid [4-(3-{3-chloro-4-[methyl-(1-methyl-piperidin-4-yl)-amino]-phenyl}-thioureido)-phenyl]-amide]
IC50 [1]: 0.4 µg/mL (≈ 0.775 µM)
IC50 [2]: > 10 µg/mL
inhibition at 10 µg/mL [2]: 58%
IC50 [3]: 12 µg/mL (≈ 23.3 µM)

Cc1ccc(NC(=S)Nc2ccc(NC(=O)c3ccccn3)cc2)cc1Cl [Example 236]
IC50 (ug/ml) HCMV [1]: 0.7 µg/mL (≈ 1.76 µM)
IC50 (ug/ml) VZV [2]: >10 µg/mL
% inhibition 10 ug/ml VZV [2]: 40%
IC50 (ug/ml) HSV [3]: >10 µg/mL

O=C(Nc1ccc(NC(=S)Nc2ccc(C(F)(F)F)c(Cl)c2)cc1)c1ccccc1F [Example 961, N-{4-[3-(3-Chloro-4-trifluoromethyl-phenyl)-thioureido]-phenyl} -2-fluoro-benzamide]
IC50 [1]: 0.006 µg/mL (≈ 0.0128 µM)
inhibition at 10 µg/mL [2]: 20%
IC50 [3]: > 10 µg/mL

O=C(Nc1ccc(NC(=S)Nc2ccc(F)c(C(F)(F)F)c2)cc1)c1csnn1 [Example 600]
IC50 (ug/ml) HCMV [1]: 0.012 µg/mL (≈ 0.0272 µM)
IC50 (ug/ml) VZV [2]: >10 µg/mL
IC50 (ug/ml) HSV [3]: >10 µg/mL

O=C(Nc1ccc(NC(=S)NCc2cc(C(F)(F)F)cc(C(F)(F)F)c2)cc1)c1csnn1 [Example 542]
IC50 (ug/ml) HCMV [1]: 0.0011 µg/mL (≈ 0.00218 µM)
IC50 (ug/ml) VZV [2]: >10 µg/mL
IC50 (ug/ml) HSV [3]: >10 µg/mL
